Experimental data reported in patent US7629317B2, “Control of growth and repair of gastro-intestinal tissues by gastrokines and inhibitors” (The University of Chicago, priority 2001, dated 2009).
“Also recorded” adds a separate entry of the source.

Key:
[1] = test system: BSC-1 epithelial cell line; test: Growth (mitogenesis) assay on confluent BSC-1 cells, cells counted 4 days later; type: cell-based, monkey; conditions: for EC50 / K1/2; concentration for half-maximal growth stimulation: synthetic peptides of Table 1; for EC50: read-out: K1/2, concentration for half-maximal growth stimulation; for mitogenic activity (in words): compared with related peptides; for antagonism of the activity of peptide 78-119: inactive overlapping peptide with the mitogenic 42-mer; for antagonism of the activity of peptide 104-117: inactive peptide with the mitogenic 14-mer
From the text: Finding that a 42-amino acid peptide representing a central region of the novel antrum mucosal cell protein AMP-18 had mitogenic activity similar in character to that of the intact protein in pig and mouse antrum extracts (Table 1), has facilitated the characterization of the bio-active region of the molecule. […] Growth activity determinations have so far been accomplished with the kidney epithelial cell line as well as several gastric and intestinal lines.
Non-transformed monkey kidney epithelial cell line BSC-1 and other epithelial cell lines were used to assess effects on growth. In general, conditions were chosen for each line such that cells are grown to confluence in plastic dishes in supplemented growth medium with minimal calf (or fetal) serum for growth (Lieske et al., 1997); BSC-1 cells become confluent at 10^6/60 mm dish with 1% calf serum. At the start of the growth assay the medium on the confluent culture was aspirated and replaced with fresh medium with minimal serum to maintain viability (0.01% for BSC-1) cells. AMP-18 preparations were added to the culture medium and 4 days later the cell monolayer was rinsed, detached with trypsin, and the cells were counted using a hemocytometer. Determination of the capacity of AMP-18 to initiate DNA synthesis was measured by the incorporation of [^3H]thymidine (Toback, 1980); to confirm the DNA synthesis assay, autoradiograms of leveled cells were counted (Kartha and Toback, 1985).

IEC-18 cells = test: Growth of confluent cultures of IEC-18 cells (cell count); type: cell-based, rat
Method: Confluent cultures of IEC-18 cells were prepared. One day later, medium was aspirated and replaced with 5 ml of DMEM containing CS (0.5%) and insulin, without (control) or with mitogenic peptide 58-99 (8 μg/ml). Sister plates receiving 1 ml medium and different amounts of peptide 67-85 were incubated at 1 hr at 38° C. on a CO2 incubator, and then an additional 4 ml of medium was added to each dish. Peptide 58-99 was added to 2 of the 4-sister plates at each concentration of peptide 67-85, and the number of cells was counted. […] Stimulation of cell growth by mitogenic peptide 58-99 was completely abolished by preincubation of cells with 0.25 μg/ml of peptide 67-85. […] Values for the number of cells per culture are shown relative to multiplication of cells exposed to the vehicle during the same period.
Urea (6 M) was employed to release proteins from the insoluble fraction solubilize rhAMP-18 containing the His6-tag (SEQ ID NO: 16), and make it available to bind to the Ni^2+-charged resin from which it was subsequently eluted with a gradient of imidazole (0 to 200 mM). The amount of eluted rhAMP-18 was measured using the BCA assay, and the appearance of a single band at the predicted size of 19-20 kD was confirmed by SDS-PAGE followed by immunoblotting. To determine if eluted rhAMP-18 renatured to assume a structure that was mitogenic, aliquots of the eluate (following removal of urea and imidazole by dialysis) were added to cultures of IEC-18 cells and the number of cells was counted 4 days later. […] AMP peptide 77-97 refers to the mature protein; same as peptide 97-117 of human precursor protein: Table 1. These observations indicate that biologically active recombinant human AMP-18 that can be utilized in diverse clinical situations is available. The mitogenic potency of rhAMP-18 is in the nanomolar range which would be expected for a native gastric cell growth factor that participates in the maintenance and repair of the stomach in vivo.
(§1) To characterize the capacity of gastric and intestinal cells to respond to AMP-18, AGS gastric adenocarcinoma cells, HAE human gastric antrum mucosa primary cultures transformed with SV40 large T antigen, rat diploid small intestinal epithelial cells of the IEC-6 (FIG. 15) and IEC-18 lines, NCI N-87 gastric carcinoma cells, and SK-GT5 gastroesophageal adenocarcinoma cells were studied; human WI-38 fibroblasts and HeLa cells served as non-GI control cell lines. Mitogenesis was assayed by performing cell counts 3 to 4 days after exposing cells to the agent of interest, trypsinizing the culture to prepare single cells, and confirming this while counting them in a hemocytometer.

AGS cells = test: Growth of gastric epithelial AGS cells (cell count four days later); type: cell-based, human; conditions: for growth stimulation of AGS cells (in words): peptide 77-97 8 μg/ml, EGF 50 ng/ml at saturating doses
Method: as §1

Helicobacter pylori = test: Growth inhibition on a bacterial lawn (filter diffusion); type: cell-based; conditions: solution on filter
Method: To determine if AMP peptide inhibits growth of H. pylori, a lawn of bacteria was prepared on a culture dish. A small circular filter was placed in the center of the dish, a solution of a test agent was placed on the filter so it diffused onto the lawn, and its effect on bacterial growth around the filter was measured. AMP peptide 77-97 (SEQ ID NO: 12) (Table 1), a scrambled version of this AMP peptide (negative control) (SEQ ID NO: 19), or the antibiotic clarithromycin (positive control) was added to a filter on different cultures. […] In addition, AMP peptide could serve as a therapeutic agent to treat H. pylori infections in the stomach, and thereby prevent the capacity of this organism to cause gastritis, gastric ulcers, and gastric adenocarcinomas.

[2] = test system: occludin, ZO-1, ZO-2, claudin-5, E-cadherin, JAM; test: Accumulation of tight and adherens junction proteins in C2 cells (immunoblot of insoluble fraction, confocal microscopy); type: cell-based, human; conditions: 8 hr; peptides 8 μg/ml, EGF 50 ng/ml
Method: To find out how the peptide exerts its cytoprotective effect, C2 cell monolayers were treated with AMP peptide, and oxidant injury was induced with monochloramine 18 hours later. Changes in the levels of specific tight junction (TJ) proteins were checked. Cells were lysed, and proteins of the insoluble/particulate fraction were studied by immunoblotting. […] This observation represents the first evidence that AMP peptide enhances accumulation of specific TJ proteins in colonic epithelial cells. […] To carry out this experiment, C2 cells were exposed to AMP peptide for different periods of time, the NP-40-insoluble fraction was obtained, Western blots were prepared, and the amount of each immunoreactive protein was quantified. A 65% increase in immunoreactivity of each protein compared to control was detected for occludin after 2 hr, and for ZO-1 at 8 hr. Hsc73, which is constitutively expressed in these cells, was not altered by exposure to AMP peptide for up to 18 hr.
Confluent monolayers of C2 cells were treated with AMP peptide or vehicle for 8 hr. Cells were then collected, proteins in the NP-40-insoluble fraction were separated by SDS-PAGE, immunoblots were prepared, and the relative amounts of immunoreactive proteins were compared by densitometric analysis. […] These changes appear relatively specific for occludin, ZO-1, ZO-2, claudin-5, E-cadherin, and JAM because they were not observed for several other proteins localized in the TJ (claudin-1, claudin-2), adherens junction (β-catenin), plasma membrane (Na-K-2Cl cotransporter, α or β subunit of Na-K-ATPase), or cytosol (Rho A, hsc73).
To better understand the mechanism(s) by which AMP peptide enhances accumulation of TJ-associated proteins, experiments were performed to determine whether the peptide exerted its effect at the apical or basolateral surface of C2 cells. Monolayers of C2 cells were grown on Transwell filters, AMP peptide (8:g/ml) was added to the apical or basolateral compartment of the Transwell, and cells were harvested 8 hr later. The NP-40-insoluble fraction was obtained, its proteins separated, and immunoblots were prepared.

In the case of “LDTMVKEQK . . . GKGPGGAPPKDLMY (LDTMVKEQKGKGPGGAPPKDLMY) [97–119]”, the EC50 [1] is reported as 200 nM.

For “KKTCIVHKMKKEVMPSIQSLDALVKEKKLQGKGPGGPPPKGL [78–119, 42 amino acid peptide of human preAMP-18, peptide 58-99 of the mature protein]”, the “mitogenic activity (in words)” value [1] was “good mitogenic activity”, the EC50 [1] was 300 nM and the “increase in cell number” value (IEC-18 cells; 3 days, peptide 58-99 8 μg/ml, EGF 50 ng/ml, vehicle 290%) was 407%.

In the case of KKTCIVHKMKK [78–88], the “antagonism of the activity of the protein in stomach extracts” value [1] is reported as “block”, the “antagonism of the activity of peptide 78-119” value [1] is reported as “block; also recorded: antagonize” and the “antagonism of the activity of peptide 104-117” value (“antagonism … of peptide 104-117” for short) ([1]; listed as 68-88) is reported as “NOT”. The “antagonism … of peptide 104-117” value ([1]; listed as peptide 78-88) was “does not” and the “K1/2; concentration for half-maximal growth stimulation” value (“K1/2; concentration” below) [1] was “Inactive”.

In the case of KKLQGK [104–109], the EC50 [1] is reported as 7400 nM.

In the case of LDALVKEKKLQGKGPGGPPPKGLMY [97–121], the “mitogenic activity (in words)” value [1] is reported as “more active” and the EC50 [1] is reported as 200 nM.

In the case of GPGG [110–113], the “K1/2; concentration” value [1] is reported as “Inactive”.

For KKLQGKGPGGPPPKGLMY [104–111], the “mitogenic activity (in words)” value [1] was “slightly less activity” and the EC50 [1] was 1000 nM.

KGPGGPPPK [109–117] showed an EC50 [1] of 2500 nM.

In the case of “GKPLGQPGKVPKLDGKEPLAK [97–117**, scrambled version of AMP peptide 77-97, negative control, reference compound]”, the “growth stimulation of AGS cells (in words)” value (AGS cells) is reported as “not stimulated”, the “growth stimulation of BSC-1 cells” value ([1]; concentrations up to 8 μg/ml) is reported as “did NOT stimulate growth” and the “growth of H. pylori lawn” value (Helicobacter pylori; listed as scrambled AMP peptide) is reported as “not”. For the same molecule, the “growth of H. pylori lawn” value (Helicobacter pylori; listed as scrambled peptide) was “did not inhibit growth”, the “growth stimulation of IEC-18 cells (in words)” value (IEC-18 cells; added alone, peptides up to 8 μg/ml) was “did NOT stimulate growth” and the “accumulation of occludin and ZO-1 (specificity)” value [2] was “not replicated”.

`CC[C@H]1OC(=O)[C@H](C)[C@@H](O[C@H]2C[C@@](C)(OC)[C@@H](O)[C@H](C)O2)[C@H](C)[C@@H](O[C@@H]2O[C@H](C)C[C@H](N(C)C)[C@H]2O)[C@](C)(OC)C[C@@H](C)C(=O)[C@H](C)[C@@H](O)[C@]1(C)O` [clarithromycin] was tested, and the “growth of H. pylori lawn” value (Helicobacter pylori) was “inhibited growth”.

In the case of KKEVMPSIQSLDALVKEKK [87–105], the “inhibition of growth stimulation by peptide 58-99” value (AGS cells) is reported as “completely inhibits”, the “growth stimulation of AGS cells (in words)” value (AGS cells) is reported as “not stimulated” and the “antagonism of the activity of the protein in stomach extracts” value [1] is reported as “block”. For the same molecule, the “antagonism of the activity of peptide 78-119” value [1] was “block; also recorded: antagonize”, the “antagonism … of peptide 104-117” value ([1]; listed as peptide 87-105) was “blocks; also recorded: antagonizes” and the “K1/2; concentration” value [1] was “Inactive”. The “concentration nearly abolishing growth-stimulatory effect of peptide 58-99” value (IEC-18 cells; FIG. 17) was ~0.1 µg/mL and the “concentration completely abolishing growth stimulation by peptide 58-99” value (IEC-18 cells; preincubation of cells, peptide 58-99 8 μg/ml) was 0.25 µg/mL.

“KKLQGKGPGGPPPK [104–117, 14 amino acid mitogenic domain]” was tested, and the “activity relative to the 42-amino acid peptide” value ([1]; from the higher K1/2 value) was 30-40% and the EC50 [1] was 800 nM.

B1: intact AMP protein: the intact, natural gastrokine AMP-18 protein of antrum mucosa (protein)
chain: YTVNINGNDGNVDGSGQQSVSINGVHNVANIDNNNGWDSWNSLWDYENSFAATRLFSKKSCIVHRMNKDAMPSLQDLDTMVKEQKGKGPGGAPPKDLMYSVNPTRVEDLNTFGPKIAGMCRGIPTYVAEEIPGPNQPLYSKKCYTADILWILRMSFCGTSVETY
In the case of B1, the “estimate for the activity of the intact AMP protein” value ([1]; estimate) is reported as 1 to 10 nM.
